Measurements: patent US10711041B2, “Lyophilisate containing a cyclic peptide of formula X1-[sequence]-X2” (priority 2013, dated 2020)

Key:
[1] = Stability investigation of the lyophilisate (visual inspection, reverse HPLC); assay type: physicochemical
Method: For that the lyophilisate was stored up to 24 months at 2 to 8° C. and up to 6 months at 25° C. at 60% relative humidity. Stability was investigated at different time points during that period. In particular the appearance, contents, as well as purity of the cyclic peptides were investigated. For that laboratory-common analytical processes were used, such as e.g. visual inspection and reverse HPLC.

[2] = biological target: T1, amilorid-sensitive Sodium Ion Channel (ENaC) (Homo sapiens, UniProt P37088); test: Patch Clamp whole cell sodium current in deglycosylated (PNGase F) and untreated A549 cells; assay type: cell-based; conditions: pre-treatment with PNGase F, peptide 240 nM, Eh = −100 mV
T1 construct: Macroscopic Sodium Ion Currents were derived from human lung epithelian cells A549; endogenous in cells; host or cells: A549 human lung epithelial cells
T1 sequence (P37088 1-669): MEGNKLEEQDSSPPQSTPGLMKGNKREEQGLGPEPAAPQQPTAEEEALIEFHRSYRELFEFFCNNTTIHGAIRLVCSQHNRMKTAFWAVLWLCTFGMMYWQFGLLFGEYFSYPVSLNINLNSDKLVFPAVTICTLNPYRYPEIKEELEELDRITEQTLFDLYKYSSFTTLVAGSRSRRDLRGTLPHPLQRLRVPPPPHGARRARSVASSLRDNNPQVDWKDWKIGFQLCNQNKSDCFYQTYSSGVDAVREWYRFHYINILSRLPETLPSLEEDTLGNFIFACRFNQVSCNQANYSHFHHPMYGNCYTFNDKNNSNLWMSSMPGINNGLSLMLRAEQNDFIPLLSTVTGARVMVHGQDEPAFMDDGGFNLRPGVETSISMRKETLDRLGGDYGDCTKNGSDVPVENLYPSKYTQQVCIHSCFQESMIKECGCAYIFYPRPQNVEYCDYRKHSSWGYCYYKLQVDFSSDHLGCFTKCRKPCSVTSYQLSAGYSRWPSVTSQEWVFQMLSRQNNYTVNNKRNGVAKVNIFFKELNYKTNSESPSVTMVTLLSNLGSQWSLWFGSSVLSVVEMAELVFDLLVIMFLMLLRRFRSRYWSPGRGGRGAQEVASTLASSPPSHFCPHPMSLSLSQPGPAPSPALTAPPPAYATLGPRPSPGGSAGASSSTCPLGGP
T1 sequence (P51168 1-640 partner): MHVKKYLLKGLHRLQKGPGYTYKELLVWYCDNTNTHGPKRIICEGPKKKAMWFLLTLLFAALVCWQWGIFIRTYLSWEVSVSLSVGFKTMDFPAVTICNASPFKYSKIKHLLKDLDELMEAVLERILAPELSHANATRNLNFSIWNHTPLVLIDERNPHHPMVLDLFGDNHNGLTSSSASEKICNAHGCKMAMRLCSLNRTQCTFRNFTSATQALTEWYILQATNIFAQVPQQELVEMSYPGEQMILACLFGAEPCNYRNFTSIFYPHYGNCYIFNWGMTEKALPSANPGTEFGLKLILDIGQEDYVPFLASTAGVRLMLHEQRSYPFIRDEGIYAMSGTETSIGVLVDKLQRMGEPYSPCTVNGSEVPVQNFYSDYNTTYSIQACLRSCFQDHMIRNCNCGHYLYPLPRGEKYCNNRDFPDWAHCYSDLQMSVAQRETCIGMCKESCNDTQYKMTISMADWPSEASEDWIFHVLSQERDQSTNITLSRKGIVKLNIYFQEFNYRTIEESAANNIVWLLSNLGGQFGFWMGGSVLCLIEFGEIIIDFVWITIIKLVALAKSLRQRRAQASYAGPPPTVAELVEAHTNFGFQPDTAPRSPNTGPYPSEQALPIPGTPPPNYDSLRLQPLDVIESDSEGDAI
T1 sequence (P51170 1-649 partner): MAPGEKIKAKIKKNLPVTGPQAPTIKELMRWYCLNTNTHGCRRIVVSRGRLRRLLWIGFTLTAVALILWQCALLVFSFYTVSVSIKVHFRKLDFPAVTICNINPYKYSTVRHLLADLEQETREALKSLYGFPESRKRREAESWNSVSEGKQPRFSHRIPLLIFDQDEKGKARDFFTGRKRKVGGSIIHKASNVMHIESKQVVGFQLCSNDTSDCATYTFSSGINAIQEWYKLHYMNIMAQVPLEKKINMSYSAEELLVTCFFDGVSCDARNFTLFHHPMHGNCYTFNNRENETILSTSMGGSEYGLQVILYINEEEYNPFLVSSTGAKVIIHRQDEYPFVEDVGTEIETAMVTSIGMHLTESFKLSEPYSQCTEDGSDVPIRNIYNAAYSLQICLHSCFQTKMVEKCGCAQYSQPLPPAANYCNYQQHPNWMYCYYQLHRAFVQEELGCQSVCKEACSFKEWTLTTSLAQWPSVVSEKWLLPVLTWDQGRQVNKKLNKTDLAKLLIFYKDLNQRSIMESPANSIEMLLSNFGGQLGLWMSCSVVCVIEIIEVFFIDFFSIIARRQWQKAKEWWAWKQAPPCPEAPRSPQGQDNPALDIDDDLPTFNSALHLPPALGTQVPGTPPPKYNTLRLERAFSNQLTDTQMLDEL
Method: […] After control recordings, 240 nM of the peptide of amino acid sequence SEQ ID NO:1 was added to the bath solution. […] Whole cell currents were recorded at Eh=−100 mV. The concentration of the peptides of amino acid sequence SEQ ID NO:1 to SEQ ID NO:7 in the bath solution was 240 nM.

[3] = storage 2-8° C., T = 0 to T = 24 M
[4] = storage 25° C./60% rH, T = 0 to T = 6 M

Compound | Amount/Contents of lyophilisate ([1]; storage 2-8° C., T = 0) | Purity of lyophilisate (stability study) ([1]; storage 2-8° C., T = 0) | Appearence of lyophilisate [1, 3] | Amount/Contents of lyophilisate ([1]; storage 2-8° C., T = 24 M) | Purity of lyophilisate (stability study) ([1]; storage 2-8° C., T = 24 M) | Amount/Contents of lyophilisate ([1]; storage 25° C./60% rH, T = 0) | Purity of lyophilisate (stability study) ([1]; storage 25° C./60% rH, T = 0) | Appearence of lyophilisate [1, 4] | Amount/Contents of lyophilisate ([1]; storage 25° C./60% rH, T = 6 M) | Purity of lyophilisate (stability study) ([1]; storage 25° C./60% rH, T = 6 M) | whole cell sodium current [2]
C[C@@H]1NC(=O)CNC(=O)[C@H](CCC(=O)O)NC(=O)[C@@H]2CCCN2C(=O)[C@H]([C@@H](C)O)NC(=O)[C@H](CCC(=O)O)NC(=O)[C@H](CCCNC(=N)N)NC(=O)[C@H](CCC(N)=O)NC(=O)CNC(=O)[C@@H]2CCCN2C(=O)[C@H](CO)NC(=O)[C@@H](N)CCCCNC(=O)CC[C@@H](C(=O)O)NC(=O)[C@H](Cc2ccc(O)cc2)NC(=O)[C@H](Cc2c[nH]c3ccccc23)NC(=O)[C@@H]2CCCN2C(=O)[C@H](CCCCN)NC(=O)[C@H](C)NC(=O)[C@H](CCC(=O)O)NC1=O [SEQ ID NO: 2] | 100% | 96% | white powder | 99% | 96% | 100% | 96% | white powder | 99% | 95% | 21.3 pA (n = 3)
C[C@@H]1NC(=O)CNC(=O)[C@H](CCC(=O)O)NC(=O)[C@@H]2CCCN2C(=O)[C@H]([C@@H](C)O)NC(=O)[C@H](CCC(=O)O)NC(=O)[C@H](CCCNC(=N)N)NC(=O)[C@H](CCC(N)=O)NC(=O)CNC(=O)[C@@H](N)CCCNC(=O)CNC(=O)[C@H](Cc2ccc(O)cc2)NC(=O)[C@H](Cc2c[nH]c3ccccc23)NC(=O)[C@@H]2CCCN2C(=O)[C@H](CCCCN)NC(=O)[C@H](C)NC(=O)[C@H](CCC(=O)O)NC1=O [SEQ ID NO: 4] | 100% | 97% | white powder | 99% | 97% | 100% | 97% | white powder | 99% | 96% | 22.5 pA (n = 3)
C[C@@H]1NC(=O)CNC(=O)[C@H](CCC(=O)O)NC(=O)[C@@H]2CCCN2C(=O)[C@H]([C@@H](C)O)NC(=O)[C@H](CCC(=O)O)NC(=O)[C@H](CCCNC(=N)N)NC(=O)[C@H](CCC(N)=O)NC(=O)CNC(=O)CCCNC(=O)C[C@@H](C(=O)O)NC(=O)[C@H](Cc2ccc(O)cc2)NC(=O)[C@H](Cc2c[nH]c3ccccc23)NC(=O)[C@@H]2CCCN2C(=O)[C@H](CCCCN)NC(=O)[C@H](C)NC(=O)[C@H](CCC(=O)O)NC1=O [SEQ ID NO: 5] | 100% | 99% | white powder | 99% | 99% | 100% | 99% | white powder | 99% | 98% | 22.4 pA (n = 3)
C[C@@H]1NC(=O)CNC(=O)[C@H](CCC(=O)O)NC(=O)[C@@H]2CCCN2C(=O)[C@H]([C@@H](C)O)NC(=O)[C@H](CCC(=O)O)NC(=O)[C@H](CCCNC(=N)N)NC(=O)[C@H](CCC(N)=O)NC(=O)CNC(=O)CCNC(=O)CC[C@@H](C(=O)O)NC(=O)[C@H](Cc2ccc(O)cc2)NC(=O)[C@H](Cc2c[nH]c3ccccc23)NC(=O)[C@@H]2CCCN2C(=O)[C@H](CCCCN)NC(=O)[C@H](C)NC(=O)[C@H](CCC(=O)O)NC1=O [SEQ ID NO: 6] | 100% | 99% | white powder | 99% | 99% | 100% | 99% | white powder | 99% | 98% | 19.9 pA (n = 3)
C[C@@H]1NC(=O)CNC(=O)[C@H](CCC(=O)O)NC(=O)[C@@H]2CCCN2C(=O)[C@H]([C@@H](C)O)NC(=O)[C@H](CCC(=O)O)NC(=O)[C@H](CCCNC(=N)N)NC(=O)[C@H](CCC(N)=O)NC(=O)CNC(=O)[C@@H](N)CCCCNC(=O)CNC(=O)[C@H](Cc2ccc(O)cc2)NC(=O)[C@H](Cc2c[nH]c3ccccc23)NC(=O)[C@@H]2CCCN2C(=O)[C@H](CCCCN)NC(=O)[C@H](C)NC(=O)[C@H](CCC(=O)O)NC1=O [SEQ ID NO: 3] | 100% | 98% | white powder | 99% | 98% | 100% | 98% | white powder | 99% | 97% | 20.6 pA (n = 3)
